Reference: patent US4439436A, “1,3-Dioxolo(4,5-G)quinoline compounds” (Sterling Drug Inc., priority 1982, dated 1984)
In brackets after ≈: the same amount, converted by molar mass. Like-named read-outs stand apart in the source and are kept apart here.

What was measured:
Escherichia coli Vogel [1] = assay: in vitro antibacterial activity, serial dilution (MIC); format: cell-based
Description: (§1) The in vitro antibacterial activity was determined by conventional serial dilution procedures. Bacterial cultures were grown in tryptose phosphate broth or brain heart infusion broth (containing heat-inactivated normal horse serum for tests with S. pyogenes) overnight at 37° C. and subsequently diluted in double strength broth to provide bacterial inocula of about 2×10^5 cells/ml. Aqueous solutions of the compounds of the invention were prepared by dissolving the free acid form in 0.5 N sodium hydroxide. The solutions were diluted with sterile distilled water to 100 mcg/ml of compound in terms of the free acid. Serial two-fold dilutions of the compound stock solutions were prepared in water and 0.5 ml of each dilution was transferred to sets of tubes, one set for each bacterial inoculum. Each tube was then inoculated with 0.5 ml of the appropriate culture, resulting in a final bacterial concentration of about 1×10^5 cells/ml. The minimal inhibitory concentration (MIC), defined as the lowest concentration of the test compound to inhibit visible bacterial growth, was recorded after 18-20 hours of static incubation at 37° C.

Proteus mirabilis MGH-1 = assay: as above; format: cell-based; settings: MGH1
Description: as §1

Proteus vulgaris 9920 = assay: as above; format: cell-based
Description: as §1

[2] = system: Klebsiella pneumoniae 39645; assay: as above; format: cell-based
Description: as §1

Escherichia coli Vogel [3] = assay: in vivo antibacterial activity in mice infected with E. coli; parameters: species or system female mice; settings: sc, 168 h
Description: (§2) The in vivo antibacterial activity of the compounds of the invention was determined in female mice, 18-20 grams each, by the following procedure:
(§3) Aqueous solutions of the compounds to be tested were prepared by dissolving the free acid form in dilute sodium hydroxide and diluting the solution with distilled water to the desired volume.
(§4) Cultures of Escherichia coli Vogel prepared in brain heart infusion broth, cultures of Klebsiella pneumoniae 39645 grown in tryptose phosphate broth with 5% rabbit serum diluted in the same broth were used to infect the mice as follows:
E coli: mice were inoculated intraperitoneally with 0.5 ml of the bacterial test inoculum (1.87×10^7 and 5×10^6 cells/ml respectively).
Mice infected with E. coli were medicated once (0.5 ml) one-half hour post infection, the test compound being administered by the subcutaneous (s.c.) route. Deaths were recorded daily for seven days.
(§5) Groups of ten animals each for four or five dose levels were thus treated and the number of survivors in each group recorded. The fifty percent protective dose values (PD50) were then calculated.

[4] = system: Pseudomonas aeruginosa MGH-2; assay: in vitro antibacterial activity, serial dilution (MIC); format: cell-based; settings: MGH2, 18-20 hours, 37° C., about 1×10^5 cells/ml, read-out: Minimal Inhibitory Concentration
Description: as §1

[5] = system: Staphylococcus aureus Smith; assay: as above; format: cell-based; settings: 18-20 hours, 37° C., about 1×10^5 cells/ml, read-out: Minimal Inhibitory Concentration
Description: as §1

[6] = system: Streptococcus pyogenes C203; assay: as above; format: cell-based; settings: broth with heat-inactivated normal horse serum, 18-20 hours, 37° C., read-out: Minimal Inhibitory Concentration
Description: as §1

[7] = system: Klebsiella pneumoniae 39645; assay: in vivo antibacterial activity in mice infected with K. pneumoniae; parameters: species or system female mice; settings: Klebsiella pneumoniae, 39645, sc, 336 h; K. pneumoniae intramuscularly; s.c. 17 h and 1 h preinfection, 6 h postinfection, twice a day next three days; fourteen days; read-out: Protective Dose (PD50)
Description: as §2, §3, §4
K. pneumoniae: mice were inoculated intramuscularly in the right hind leg with 0.2 ml of the bacterial test inoculum (2.05×10^4 cells/ml).
Mice infected with K. pneumoniae were medicated at the following times: seventeen hours and one hour preinfection, six hours postinfection and twice a day for the next three days. The test compound was administered by the subcutaneous (0.2 ml) route. Deaths were recorded daily for fourteen days.
as §5

[8] = Escherichia coli, E. coli, in vitro, read-out: MIC
[9] = Proteus mirabilis, P. mirab., in vitro, read-out: MIC
[10] = Proteus vulgaris, 9920, P. vulg., in vitro, read-out: MIC
[11] = Escherichia coli Vogel, 18-20 hours, 37° C., about 1×10^5 cells/ml, read-out: Minimal Inhibitory Concentration
[12] = Klebsiella pneumoniae 39645, 18-20 hours, 37° C., about 1×10^5 cells/ml, read-out: Minimal Inhibitory Concentration
[13] = Proteus mirabilis MGH-1, 18-20 hours, 37° C., about 1×10^5 cells/ml, read-out: Minimal Inhibitory Concentration
[14] = Proteus vulgaris 9920, 18-20 hours, 37° C., about 1×10^5 cells/ml, read-out: Minimal Inhibitory Concentration
[15] = E. coli intraperitoneally, single s.c. dose one-half hour post infection, seven days, read-out: Protective Dose (PD50)

| SMILES | MIC (Escherichia coli Vogel [1]; [8]) | MIC (Proteus mirabilis MGH-1; [9]) | MIC (Proteus vulgaris 9920; [10]) | MIC ([2]; Klebsiella pneumoniae, 39645, K. pneum., in vitro, read-out: MIC) | ED50 (Escherichia coli Vogel [3]; in vivo against E. coli, read-out: PD50) | MIC (Escherichia coli Vogel [1]; [11]) | MIC [2, 12] | MIC (Proteus mirabilis MGH-1; [13]) | MIC (Proteus vulgaris 9920; [14]) | MIC [4] | MIC [5] | MIC [6] | ED50 (Escherichia coli Vogel [3]; [15]) | ED50 [7] |
| --- | --- | --- | --- | --- | --- | --- | --- | --- | --- | --- | --- | --- | --- | --- |
| Nn1cc(C(=O)O)c(=O)c2cc3c(cc21)OCO3 [Example 2, 5-Amino-5,8-dihydro-8-oxo-1,3-dioxolo[4,5-g]quinoline-7-carboxylic acid] | 7.8 µg/mL (≈ 31.4 µM) | 3.9 µg/mL (≈ 15.7 µM) | 3.9 µg/mL (≈ 15.7 µM) |  |  |  |  |  |  |  |  |  |  |  |
| CN(C=O)n1cc(C(=O)O)c(=O)c2cc3c(cc21)OCO3 [Example 7, 5-[(Formyl)methylamino]5,8-dihydro-8-oxo-1,3-dioxolo[4,5-g]-quinoline-7-carboxylic acid] | 31.3 µg/mL (≈ 108 µM) | 7.8 µg/mL (≈ 26.9 µM) | 15.6 µg/mL (≈ 53.8 µM) | 15.6 µg/mL (≈ 53.8 µM) | 40 mg/kg |  |  |  |  |  |  |  |  |  |
| CNn1cc(C(=O)O)c(=O)c2cc3c(cc21)OCO3 [Example 9, 5,8-Dihydro-5-(methylamino)-8-oxo-1,3-dioxolo[4,5-g]quinoline-7-carboxylic acid] |  |  |  |  |  | 0.25 µg/mL (≈ 0.953 µM) | 1 µg/mL (≈ 3.81 µM) | 0.25 µg/mL (≈ 0.953 µM) | 0.125 µg/mL (≈ 0.477 µM) | 15.6 µg/mL (≈ 59.5 µM) | 3.9 µg/mL (≈ 14.9 µM) | > 500 µg/mL | 3.3 mg/kg | 28 mg/kg |
| CCNn1cc(C(=O)O)c(=O)c2cc3c(cc21)OCO3 [Example 12, 5-(Ethylamino)-5,8-dihydro-8-oxo-1,3-dioxolo[4,5-g]quinoline-7-carboxylic acid] |  |  |  |  |  | 1 µg/mL (≈ 3.62 µM) | 1.95 µg/mL (≈ 7.06 µM) | 1.95 µg/mL (≈ 7.06 µM) | 0.25 µg/mL (≈ 0.905 µM) | > 62.5 µg/mL | > 15.6 µg/mL | > 62.5 µg/mL | 7 mg/kg | 50 mg/kg |
| CCCNn1cc(C(=O)O)c(=O)c2cc3c(cc21)OCO3 [Example 14, 5,8-Dihydro-8-oxo-5-(propylamino)-1,3-dioxolo[4,5-g]quinoline-7-carboxylic acid] |  |  |  |  |  | > 7.8 µg/mL | > 7.8 µg/mL | > 7.8 µg/mL | 3.9 µg/mL (≈ 13.4 µM) | > 62.5 µg/mL | > 62.5 µg/mL | > 62.5 µg/mL | 141 mg/kg | > 200 mg/kg |
